Measurements published in patent publication EP1954678B1, “NOVEL NK1 AND NK2 ANTAGONISTS” (Abbott Products GmbH, priority 2005, dated 2007).
Read-outs that look alike come from different tables or passages of the source.

Columns and labels:
human NK1 receptors = target: T1, human NK1 receptors (Homo sapiens, UniProt P25103); test: Binding of the test substances to NK1 receptors in vitro ([3H]-Substance P displacement, CHO cell membranes); conditions: [3H]-Substance P as ligand; membranes of CHO cells expressing the human NK1 receptor; Ki calculated from IC50; read-out: pKi (NK1) (converted)
T1 construct: expressed in transfected cells; host or cells: CHO cells (membrane preparation)
Method: In The Netherlands, the affinity of the test substances to human NK1 receptors was measured in vitro.
The receptor binding studies were performed with [^3H]-Substance P as ligand. For the binding test, different samples of a membrane preparation of CHO cells (= egg cells of the Chinese hamster, Chinese hamster oocytes), which express the human NK1 receptor ("Accession Number" of the associated nucleic acid sequence = M74290; "Accession Number" of the associated protein sequence = P25103; cf. Takeda, Y.; Chou, K. B., Takeda, J.; Sachais, B.S. and Krause, J. E; Biochemical and Biophysical Research Communications, 179(3) (1991) 1232 - 1240), were incubated with a solution of the marked ligand, with the incubation mixtures containing no test substance or additions of different concentrations of test substance. Then, separation of bound and free ligands was performed in each of the samples with the aid of glass-fibre filtration. The fraction remaining in the filter was washed several times with buffer solution and then the radioactivity of the fraction remaining in the filter was measured using a beta scintillation counter.
For the compounds of Examples 1 to 14, that concentration which effects half maximum displacement of the bound ligand was determined as IC50 of the respective test substance. From this, the corresponding inhibition constant (Ki value) of the test substance was calculated, and was stated as the negative common logarithm of the Ki value (= pKi value). The pKi value is a measurement of the affinity of the test substances to human NK1 receptors.

human NK2 receptors = target: T2, human NK2 receptors (Homo sapiens, UniProt P21452); test: Binding of the test substances to NK2 receptors in vitro ([3H]-SR 48968 displacement, CHO cell membranes); conditions: [3H]-SR 48968 as ligand; membranes of CHO cells expressing the human NK2 receptor; 90 min incubation; Ki calculated from IC50; read-out: pKi (NK2) (converted)
T2 construct: expressed in transfected cells; host or cells: CHO cells (membrane preparation)
T2 sequence (P21452 1-398): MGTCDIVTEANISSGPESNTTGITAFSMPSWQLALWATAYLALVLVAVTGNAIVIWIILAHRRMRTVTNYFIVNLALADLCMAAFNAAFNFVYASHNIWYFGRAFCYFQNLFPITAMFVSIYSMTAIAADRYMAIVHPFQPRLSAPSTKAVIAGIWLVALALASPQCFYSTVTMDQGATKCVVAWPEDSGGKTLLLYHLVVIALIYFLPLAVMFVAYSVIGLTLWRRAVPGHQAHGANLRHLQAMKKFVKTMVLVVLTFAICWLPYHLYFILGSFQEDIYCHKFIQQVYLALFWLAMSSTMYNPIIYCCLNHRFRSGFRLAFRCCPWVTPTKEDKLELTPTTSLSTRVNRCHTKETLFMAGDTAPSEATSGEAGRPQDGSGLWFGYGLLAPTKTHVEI
Method: The affinity of the test substances to human NK2 receptors was measured in vitro. The ability of the test substances to displace the selective NK2 receptor antagonist SR 48968 (= saredutant) used as reference ligand from its corresponding bond was determined.
The receptor binding studies were carried out with radioactively marked [^3H]-SR 48968 (from Amersham) as ligand. For the binding test, different samples of a membrane preparation of CHO cells (= egg cells of the Chinese hamster, Chinese hamster oocytes), which express the human NK2 receptor (for preparation, see N.P. Gerard et al., Journal of Biological Chemistry 265/33 (1990) 20455-20462), were incubated for 90 minutes (= min.) with a solution of the marked ligand, with the incubation mixtures containing no test substance or additions of different concentrations of test substance. Then in each case the membrane-bound ligands in the samples were separated from free ligands by filtration. The fraction remaining in the filter was washed several times with buffer solution, before its radioactivity was measured using a liquid scintillation counter. That concentration which effects half-maximum displacement of the bound reference ligand was determined as IC50 of the respective test substance. The inhibition constant (Ki value) of the test substance was calculated from the respective IC50 value, and was stated as the negative logarithmised value thereof (pKi).
If several measurements were performed, the average thereof was listed each time. The pKi value is a measurement of the affinity of the test substances to human NK2 receptors.

NK1 receptors [1] = target: T3, NK1 receptors (Cavia porcellus, UniProt P30547); test: Functional NK1 antagonism on isolated guinea pig aorta ring preparations (Substance P induced relaxation); design: from tissue; host or cells: guinea pig aorta ring preparations; species or system Pirbright-White guinea pigs
Method: In The Netherlands, the action antagonistic to NK1 receptors of the test substances was measured in vitro on isolated ring preparations, kept in an oxygenated nutrient solution, of the aortas of Pirbright-White guinea pigs.
In order to measure the contraction of the vessel muscles, the preparations were fixed to a hook, joined by a thread to a force measuring apparatus and the contractions were recorded in each case on a plotter. The aorta preparations were tonicised with phenylephrine. […] The relaxations before and after the administration of the test substance were quantified in percent. The effective concentration of the half maximum inhibition of the relaxation of the tone (= EC50) was calculated. The negative common logarithm of the EC50 value (= pEC50) was given as characteristic variable. The pEC50 value is a measurement of the functional effectiveness of the test substances on NK1 receptors.

NK2 receptors [2] = target: T4, NK2 receptors (Cavia porcellus, UniProt Q64077); test: Functional NK2 antagonism on isolated guinea pig gall-bladder preparations (NKA induced contraction); design: from tissue; host or cells: guinea pig gall-bladder preparations; species or system Pirbright-White guinea pigs
T4 sequence (Q64077 1-402): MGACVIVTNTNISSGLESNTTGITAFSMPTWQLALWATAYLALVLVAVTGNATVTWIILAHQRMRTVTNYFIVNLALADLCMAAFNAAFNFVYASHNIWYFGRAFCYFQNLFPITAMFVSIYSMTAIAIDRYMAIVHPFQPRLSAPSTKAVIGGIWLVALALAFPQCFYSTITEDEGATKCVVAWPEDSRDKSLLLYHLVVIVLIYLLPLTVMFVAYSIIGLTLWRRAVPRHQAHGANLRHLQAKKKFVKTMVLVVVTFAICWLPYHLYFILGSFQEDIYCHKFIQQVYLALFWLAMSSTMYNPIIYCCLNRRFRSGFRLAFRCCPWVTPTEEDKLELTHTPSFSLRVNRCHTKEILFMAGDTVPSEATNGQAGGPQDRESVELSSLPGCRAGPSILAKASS
Method: The NK2 receptor-antagonising action of the test substances was determined on isolated gall-bladder preparations from Pirbright-White guinea pigs, held in an oxygen-saturated nutrient solution. To this end, the preparations were fastened on one hand in the nutrient solution to organ holders and on the other hand on a force meter by a thread.
The concentration of the test substances was increased iteratively in the subsequent experiments as a function of the result in logarithmic whole or half steps, until at least one concentration above or below 50% inhibition of contraction was determined (up to at most 10^-5 mol/l). For each concentration, the average value of inhibition of contraction was calculated from 2 to 4 preparations. In each case, the concentration of half-maximum inhibition (IC50) per test substance was calculated as characteristic variable.

[3] = target: T5, cloned human NK1 receptors (Homo sapiens, UniProt P25103); test: Ca2+ measurements using FLIPR for NK1 activity in CHO cells; format: cell-based; conditions: substance P 10^-8 M as agonist; compound applied 7 min before; pA2 calculated from IC50
T5 construct: expressed in transfected cells
From the text: (§1) The NK receptor is coupled to Gq.
(§2) All steps were done under sterile conditions. […] The results are summarized in table 5: Table 5: pA2 data for NK1 and NK2: […]

[4] = target: T6, cloned human NK2 receptors (Homo sapiens, UniProt P21452); test: Ca2+ measurements using FLIPR for NK2 activity in CHO cells; format: cell-based; conditions: NKA 10^-7 M as agonist; compound applied 7 min before; pA2 calculated from IC50
T6 construct: expressed in transfected cells
T6 sequence (P21452 1-398): T2 sequence (P21452 1-398)
From the text: as §1, §2

NK1 receptors [5] = target: T3, NK1 receptors; test: NK-1-receptor-antagonistic effectiveness in vivo in anaesthetised guinea pigs (NKA test stimulus, early hypotension); design: from tissue; host or cells: whole anaesthetised guinea pig (in vivo); species or system Pirbright-White guinea pigs; conditions: guinea pig, iv, read-out: ED50 iv after 1 min (cumulative) NK1 (early hypotension)
From the text: (§3) The NK-1- and NK-2-antagonistic activities of the test substances were investigated in anaesthetised guinea pigs in each case after intravenous (= i.v.) and oral (= p.o.) administration in vivo. With the present test model it is possible to detect both NK-2-antagonistic effects in three different organ systems (respiratory tracts, colon and circulation) and NK-1-antagonistic effects (rapid drop in blood pressure) in an animal simultaneously.
(§4) Pirbright-White guinea pigs of a body weight of 500-700 g were anaesthetised with ketamine/xylazine (67/13 mg/kg subcutaneously, initial dose, further doses administered as required). The animals were provided with an intravenous catheter in order to administer the substance and an intra-arterial catheter to measure the blood pressure. The animals were artificially ventilated via a tracheal cannula and the respiratory pressure was recorded by means of a pressure transducer. A balloon was introduced into the distal colon of the animals for manometric recording of colon motility by means of a pressure transducer. Blood pressure, heart rate, respiratory pressure and colonic pressure were measured continuously for each animal and plotted on a recorder and by means of a digital data-processing system. […] The second phase of delayed hypotension (= phase of maximum hypotension after 2-5 min.) on the other hand is mediated via NK-2 receptors, since they can be blocked by specific NK-2 receptor antagonists. […] Table 6: NK-1- and NK-2-receptor-antagonistic effective-ness of the test substances of Formula I on guinea pigs in vivo after intravenous administration
(§5) These ED50 values obtained from cumulative dose effect curves are plotted in table 6.
(§6) The antagonistic effects of the test substances were then determined as "area under the curve" ("AUC") over the investigation period after administration of the test substances (1 - 180 min after administration) and the ED50 values after oral administration obtained therefrom were plotted in table 7. Table 7: NK-1- and NK-2-receptor-antagonistic effective-ness of the test substances of Formula I on guinea pigs in vivo after oral administration

NK2 receptors [6] = target: T4, NK2 receptors; test: NK-2-receptor-antagonistic effectiveness in vivo in anaesthetised guinea pigs (NKA test stimulus: late hypotension, bronchoconstriction, colonic pressure); design: from tissue; host or cells: whole anaesthetised guinea pig (in vivo); species or system Pirbright-White guinea pigs; conditions: guinea pig, iv
From the text: as §3, §4, §5, §6

[7] = read-out: ED50 iv after 1 min (cumulative) NK2 (broncho-constriction)
[8] = read-out: ED50 iv after 1 min (cumulative) NK2 (colonic motility)
[9] = read-out: ED50 iv after 1 min (cumulative) NK2 (late hypotension)

T1 sequence (P25103 whole entry): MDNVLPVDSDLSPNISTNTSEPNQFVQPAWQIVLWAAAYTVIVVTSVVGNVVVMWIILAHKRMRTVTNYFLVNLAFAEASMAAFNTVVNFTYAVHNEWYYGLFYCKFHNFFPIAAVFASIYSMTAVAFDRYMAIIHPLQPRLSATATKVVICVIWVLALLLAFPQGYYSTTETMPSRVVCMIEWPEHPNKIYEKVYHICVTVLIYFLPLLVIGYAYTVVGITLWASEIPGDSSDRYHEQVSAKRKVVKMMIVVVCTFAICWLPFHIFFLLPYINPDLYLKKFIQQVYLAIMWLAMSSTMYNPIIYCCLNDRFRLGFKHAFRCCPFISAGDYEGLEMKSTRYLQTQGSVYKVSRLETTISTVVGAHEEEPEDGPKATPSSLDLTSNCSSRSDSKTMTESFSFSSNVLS
T3 sequence (P30547 whole entry): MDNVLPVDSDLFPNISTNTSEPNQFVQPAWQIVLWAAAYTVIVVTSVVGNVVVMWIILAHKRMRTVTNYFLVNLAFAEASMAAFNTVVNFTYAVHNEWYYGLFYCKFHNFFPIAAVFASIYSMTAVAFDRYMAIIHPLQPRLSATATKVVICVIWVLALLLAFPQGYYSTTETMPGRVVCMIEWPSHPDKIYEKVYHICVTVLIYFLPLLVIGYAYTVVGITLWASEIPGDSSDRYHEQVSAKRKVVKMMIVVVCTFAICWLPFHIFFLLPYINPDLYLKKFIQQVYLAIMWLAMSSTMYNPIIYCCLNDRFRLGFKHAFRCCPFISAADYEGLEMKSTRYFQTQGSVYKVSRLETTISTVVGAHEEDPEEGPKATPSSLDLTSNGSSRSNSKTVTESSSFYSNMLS
T5 sequence (P25103 whole entry): as the sequence (P25103 whole entry) above

SMILES	Ki (human NK1 receptors) [nM]	Ki (human NK2 receptors) [nM]	EC50 (NK1 receptors [1]) [nM]	IC50 (NK2 receptors [2]) [nM]	Kb [3] [nM]	Kb [4] [nM]	ED50 (NK1 receptors [5]) [µmol/kg]	ED50 (NK2 receptors [6]; [7]) [µmol/kg]	ED50 (NK2 receptors [6]; [8]) [µmol/kg]	ED50 (NK2 receptors [6]; [9]) [µmol/kg]
CN(C[C@@H](CCN1CCN([C@@H](c2ccsc2)[C@H](O)[C@@H](O)[C@H](O)CO)CC1)c1ccc(Cl)c(Cl)c1)C(=O)c1cc(C#N)cc2ccccc12 [Compound 5, 3-cyano-N-[(2S)-2-(3,4-dichlorophenyl)-4-{4-[(1S,2S,3R,4R)-2,3,4,5-tetrahydroxy-1-(3-thienyl)pentyl]piperazin-1-yl}butyl]-N-methyl-1-naphthamide]	1.26	50.1	0.1	31.6						
CN(C[C@@H](CCN1CCN([C@@H](c2ccsc2)[C@H](O)CO)CC1)c1ccc(Cl)c(Cl)c1)C(=O)c1cc(C#N)cc2ccccc12 [Compound 8, 3-cyano-N-[(2S)-2-(3,4-dichlorophenyl)-4-{4-[(1S,2S)-2,3-dihydroxy-1-(3-thienyl)propyl]piperazin-1-yl}butyl]-N-methyl-1-naphthamide]	7.94	31.6			0.631	1.26	0.07	1.13	0.135	0.803
CN(C[C@@H](CCN1CCN([C@@H](c2cccs2)[C@H](O)CO)CC1)c1ccc(Cl)c(Cl)c1)C(=O)c1cc(C#N)cc2ccccc12 [Compound 9, 3-cyano-N-[(2S)-2-(3,4-dichlorophenyl)-4-{4-[(1R,2S)-2,3-dihydroxy-1-(2-thienyl)propyl]piperazin-1-yl}butyl]-N-methyl-1-naphthamide]	10	63.1			3.16		0.099	0.943	0.287	1.04
CN(C[C@@H](CCN1CCN([C@@H](c2ccsc2)[C@H]2COC(=O)O2)CC1)c1ccc(Cl)c(Cl)c1)C(=O)c1cc(C#N)cc2ccccc12 [Compound 10, 3-cyano-N-[(2S)-2-(3,4-dichlorophenyl)-4-{4-[(S)-[(4S)-2-oxo-1,3-dioxolan-4-yl](3-thienyl)methyl]piperazin-1-yl}butyl]-N-methyl-1-naphthamide]	10	100					0.041	0.045	0.109	0.04
CN(C[C@@H](CCN1CCN([C@@H](c2ccccc2)[C@H](O)CO)CC1)c1ccc(Cl)c(Cl)c1)C(=O)c1cc(C#N)cc2ccccc12 [Compound 23, 3-cyano-N-[(2S)-2-(3,4-dichlorophenyl)-4-{4-[(1S,2S)-2,3-dihydroxy-1-phenylpropyl]piperazin-1-yl)butyl]-N-methyl-1-naphthamide]							0.029	0.725	0.961	1.17
